Earlier results as cited in PMC8148172, “Evaluation of a Keratin 1 Targeting Peptide-Doxorubicin Conjugate in a Mouse Model of Triple-Negative Breast Cancer” (Pharmaceutics, 2021).

What was measured:
[1] = parameters: method as in PMID 27370248, PMID 16515518; conditions: as conjugate with circulating albumin
[2] = test system: TNBC; parameters: method as in PMID 28520410

Molecule | greater doses of Dox administered with minimal cardiotoxicity [1] | targeting of TNBC relative to linear 18-4 peptide [2]
COc1cccc2c1C(=O)c1c(O)c3c(c(O)c1C2=O)C[C@@](O)(/C(CO)=N/NC(=O)CCCCCN1C(=O)C=CC1=O)C[C@@H]3O[C@H]1C[C@H](N)[C@H](O)[C@H](C)O1 [Aldox, aldoxorubicin] | 3–4 × | –
N- to C-terminal cyclized WXEAAYQkFL [cyclic analogue of 18-4] | – | 2–3 fold
